Experiments:
[1] = system: barley powdery mildew fungus (Erysiphe graminis); experiment: Test Example 2: control effect against barley powdery mildew by foliage application; assay type: in vivo; details: wettable powder diluted to 100 ppm, 10 mL per pot foliage spray on barley; inoculated day after; 7 days after inoculation
[2] = system: rice sheath blight fungus (Thanatephorus cucumeris); experiment: Test Example 8: control effect against rice sheath blight by box treatment (granule); details: 5 g of granule on nursery box, paddy rice; inoculated after 3 weeks; 7 days after inoculation
[3] = system: rice sheath blight fungus (Thanatephorus cucumeris); experiment: Test Example 6: control effect against rice sheath blight by box treatment (flowable formulation); details: flowable 5,000 ppm, 50 mL irrigation of nursery box, paddy rice; inoculated after 3 weeks; 7 days after inoculation
[4] = system: rice sheath blight fungus (Thanatephorus cucumeris); experiment: Test Example 10: control effect against rice sheath blight by water surface application (flowable formulation); details: flowable 1,000 ppm, 1 mL dripped in paddy water, inoculated after 1 week, 7 days after inoculation
Experimental: Control value (%)=[1−(lesion height in sprayed plot/lesion height in unsprayed plot)]×100 (d)
By dripping treatment in paddy water, 1 mL of a diluted solution (1,000 ppm) of a flowable prepared according to Formulation Example-3 was applied to a 5-leaf-stage paddy rice (variety: Asahi) seedling (5 seedlings/stub, one stub/pot) grown in a pot ( 1/10000 are in size) filled with paddy soil (flooded) within a greenhouse. After growing for 1 week within a greenhouse, a culture of rice sheath blight fungus (Thanatephorus cucumeris) grown in advance on a rice straw medium was inoculated into the root of the formulation-treated paddy rice, and disease development was promoted in an artificial weather chamber at 26° C. (relative humidity=100%). Seven days after the inoculation, the rice sheath blight lesion height (height from the root) was examined, and the control value (%) was calculated according to formula (d). […] This test was performed with three replications, each consisting of one plot and one pot, per one formulation plot, and its average evaluation value of control effect was determined.

Compound | evaluation value of control effect (from control value, lesion area percentage) [1] | evaluation value of control effect (from control value, lesion height) [2] | evaluation value of control effect (from control value, lesion height) [3] | evaluation value of control effect (from control value, lesion height) [4]
Cn1cc(C(=O)N(C(=O)c2snc(Cl)c2Cl)c2ccccc2-c2ccccc2)c(C(F)F)n1 [1-61] | 4 |  |  | 
Cn1cc(C(=O)N(C(=O)c2snc(Cl)c2Cl)c2ccccc2-c2cc(F)c(F)c(F)c2)c(C(F)F)n1 [1-65] | 5 | 5 | 5 | 5
CCC(C)Oc1cccc(N(C(=O)c2cn(C)nc2C(F)F)C(=O)c2snc(Cl)c2Cl)c1C (centres unmarked) [1-122] |  | 5 | 5 | 5
Cc1nsc(C(=O)N(C(=O)c2cn(C)nc2C(F)F)c2ccccc2C(C)CC(C)C)c1Cl (centres unmarked) [1-140] | 5 | 5 | 5 | 5
Cc1nn(C)c(F)c1C(=O)N(C(=O)c1cc(Cl)nc(Cl)c1)c1ccccc1C(C)CC(C)C (centres unmarked) [1-266] | 4 |  |  | 
Cc1nn(C)c(F)c1C(=O)N(C(=O)c1cccc2nnsc12)c1ccccc1C(C)CC(C)C (centres unmarked) [1-279] |  | 5 | 5 | 5
CCc1nc(C(F)F)c(C(=O)N(C(=O)c2c(C)nn(C)c2F)c2ccccc2C(C)CC(C)C)s1 (centres unmarked) [1-292] |  | 5 | 5 | 5
Cc1nc(C(F)(F)F)c(C(=O)N(C(=O)c2cn(C)nc2C(F)F)c2ccccc2C(C)CC(C)C)s1 (centres unmarked) [1-300] | 5 | 5 | 5 | 5
Cc1nc(C(F)(F)F)c(C(=O)N(C(=O)c2c(C)nn(C)c2F)c2ccccc2C(C)CC(C)C)s1 (centres unmarked) [1-307] | 4 |  |  | 
Cc1nc(C(F)F)c(C(=O)N(C(=O)c2c(C)nn(C)c2F)c2ccccc2C(C)CC(C)C)s1 (centres unmarked) [1-325] | 4 |  |  | 
CC(C)CC(C)c1ccccc1N(C(=O)c1cccnc1C(F)F)C(=O)c1cn(C)nc1C(F)F (centres unmarked) [1-349] | 4 |  |  | 
CC(C)CC(C)c1ccccc1N(C(=O)c1cn(C)nc1C(F)F)C(=O)c1c(C(F)F)nn(C)c1Cl (centres unmarked) [1-354] | 5 | 5 | 5 | 5
Cc1nc(C(F)F)c(C(=O)N(C(=O)c2snc(Cl)c2Cl)c2ccccc2-c2cc(F)c(F)c(F)c2)s1 [7-68] | 4 |  |  | 
Cc1nc(C(F)F)c(C(=O)N(C(=O)c2snc(Cl)c2Cl)c2c(Br)cc(OC(F)(F)F)cc2Br)s1 [7-129] | 4 |  |  | 
Cc1nc(C(F)(F)F)c(C(=O)N(C(=O)c2scnc2C(F)(F)F)c2c(Br)cc(OC(F)(F)F)cc2Br)s1 [7-284] |  | 5 | 5 | 5
Cc1nc(C(F)F)c(C(=O)N(C(=O)c2snnc2C)c2ccsc2C(C)CC(C)C)s1 (centres unmarked) [11-20] | 5 |  |  | 
CC1CC(C)(C)c2cccc(N(C(=O)c3cn(C)nc3C(F)F)C(=O)c3scnc3C(F)(F)F)c21 (centres unmarked) [25-103] | 4 |  |  | 
Cc1nn(C)c(Cl)c1C(=O)N(C(=O)c1cc(Cl)nc(Cl)c1)c1cccc2c1C(C)OC2(C)C (centres unmarked) [25-125] | 4 |  |  | 

Reference: patent publication US20210007356A1, “IMIDE DERIVATIVE AND FUNGICIDE CONTAINING SAID DERIVATIVE AS ACTIVE INGREDIENT” (HOKKO CHEMICAL INDUSTRY CO., LTD., priority 2018, published 2021)
